# Measurements as given in patent US20090068207A1, “Compositions Containing Beta 2-Glycoprotein I-Derived Peptides for the Prevention and/or Treatment of Vascular Disease” (Vascular Biogenics Ltd., priority 2005, published 2009).
# Values joined by “and” are separate entries in the source; they are usually repeats but may differ in a detail not shown here. Equal values may be shown once.
# How the values were obtained:
# lymph node cells = test: Lymph node cell proliferation (stimulation index) to oxLDL after oral administration; format: in vivo, mice; settings: oral, LDL-RD mice immunized with OxLDL; for reduction in Stimulation Index of OxLDL-sensitized lymph node cells / Stimulation index / effect on Stimulation Index of sensitized lymph node cells in response to OxLDL: 3 doses of 100 μg; for Stimulation index: OxLDL challenge, mean ± S.E.
# Protocol: Proliferation was measured by the incorporation of [^3H] thymidine into DNA during the final 12 h of incubation. The results were computed as stimulation index: the ratio of the mean cpm of the antigen to the mean background cpm obtained in the absence of the antigen.
# […] Three days after the final administration of peptides, the mice were immunized with OxLDL in incomplete Freund's adjuvant, as described in the Examples above, and lymph node cells assessed for antigen (OxLDL) stimulation of proliferation 10 days later. Proliferation was assessed by incorporation of thymidine, expressed as the Stimulation Index, as described.
# LDL-RD mice [1] = test: Aortic sinus lesion area after oral administration, Western diet; format: in vivo; settings: for Aortic sinus lesion (μm^2): End, oral 100 μg, mean ± S.E
# Protocol: Oral Tolerance: For comparison, oral tolerance to plaque-associated molecules was induced by feeding […] of antigen every other day (for a detailed account of induction of oral tolerance, see U.S. patent application Ser. No. 09/806,400 to Shoenfeld et al filed Sep. 30, 1999), in a similar regimen to the nasal tolerance. LDL-RD mice were fed by a nasogastric tube, five doses (every other day) of human or bovine β2GPI in PBS in two different concentrations (500 and 50 μg/dose).
# Oral tolerance to β2GPI-derived peptides, alone or in combination was induced by feeding 100 μg of the peptides (prepared in PBS, 0.2 ml), as detailed hereinabove, every other day for a total of 5 doses of 100 μg. One day following the last feeding, all mice were switched from chow-diet to an atherogenic “Western” diet and sacrificed five weeks later.
# (§1) Assessment of Atherosclerosis: Quantification of atherosclerotic fatty streak lesions was done by calculating the lesion size in the aortic sinus as previously described (16) and by calculating the lesion size in the aorta. Briefly, after perfusion with saline Tris EDTA, the heart and the aorta were removed from the animals and the peripheral fat cleaned carefully. The upper section of the heart was embedded in OCT medium (10.24% w/w polyvinyl alcohol; 4.26% w/w polyethylene glycol; 85.50% w/w nonreactive ingredients) and frozen. Every other section (10 μm thick) throughout the aortic sinus (400 μm) was taken for analysis. The distal portion of the aortic sinus was recognized by the three valve cusps that are the junctions of the aorta to the heart. […] Lesion areas per section were scored on a grid (17) by an observer counting unidentified, numbered specimens. The aorta was dissected from the heart and surrounding adventitious tissue was removed. Fixation of the aorta and Sudan staining of the vessels were performed as previously described (21).
# LDL-receptor deficient (LDL-RD; LDLR −/−) mice created on a C57BL/6 background develop accelerated atherosclerosis when fed a high cholesterol diet, but not when fed a regular chow diet. In order to determine whether mucosal administration of the plaque antigen β2GPI could suppress atherogenic processes, LDL-RD mice were fed low, oral tolerance inducing doses of human and bovine β2GPI, and the assessed for alterations in response to diet.
# LDL-RD mice [2] = test: Aortic sinus lesion area after intraperitoneal immunization with incomplete Freund's adjuvant; format: in vivo; settings: for Aortic sinus lesion (μm^2): End, intraperitoneal with incomplete Freund's adjuvant, head 100 μg, mean ± S.E
# Protocol: Intraperitoneal immunization with human β2GPI-derived peptides: human β2GPI-derived peptides were dissolved in PBS and mixed with equal volumes of Freund's incomplete adjuvant. […] One week following the last immunization, the diet was switched from chow to atherogenic “Western” diet for five weeks, and then the mice were sacrificed.
# as §1
# Immunization with Human β2GPI-derived peptides mildly attenuates the early atherogenesis in LDL RD mice: In order to compare the effects of different modes of administration of human β2GPI-derived peptides on atherosclerosis, human β2GPI-derived peptides and human β2GPI were administered intraperitoneally (IP) with incomplete Freund's adjuvant, in LDL RD mice, effectively immunizing the mice, as opposed to the tolerance effected by mucosal administration.
# Data presented in FIG. 11, and Table 7, clearly indicates a non-specific inhibitory effect of immunization (see PBS vs Non-immunized) on the size of the aortic sinus lesions in the susceptible LDL RD mice. On an average, immunization with the human β2GPI-derived peptides was equally, if not more, effective in inhibiting atherogenesis as immunization with human β2GPI, or with PBS prepared in incomplete Freund's adjuvant. In contrast to the protection achieved with mucosal administration, the different peptides S-1, S-2, S-3 and S-4 provided widely divergent, and diminished (34% or less) degrees of protection, as compared with controls.
# ApoE-KO mice [3] = test: Aortic sinus lesion area after oral administration in ApoE-KO mice; format: in vivo; settings: oral 50 μg, 5 doses
# Text: as §1, with “Fixation of the aorta and Sudan staining of the vessels were performed as previously described (21).” left out
# In order to determine the protective effect of mucosal administration of β2GPI on development of atherosclerosis, adult ApoE-KO mice were treated with oral administration of human β2GPI. […] Lesion area calculated from cryosections of the aortic sinus were compared between control untreated 20 week old mice, and mice following 16 weeks oral administration of β2GPI or PBS. […]
# ApoE-KO mice [4] = test: Aortic sinus lesion area after nasal administration in ApoE-KO mice; format: in vivo; settings: End, nasal 10 μg/mouse, mean ± S.E
# Protocol: Nasal Tolerance: Nasal tolerance was induced by intranasal administration of oxidized LDL, β2GPI, β2GPI-derived peptides or HSP65, in a total volume of 10 μl PBS. Intranasal administration was performed on mildly sedated mice (12-16 weeks old), each mouse receiving […] of antigen per dose, in the indicated concentrations, every other day. Atherogenesis was induced by 5 weeks of a Western diet initiated on the day following the last intranasal administration, or assessed (in Apo E KO mice) after 8 weeks on a chow diet. Controls received equal amounts of BSA and/or PBS, as indicated, in an identical regimen. Plasma was obtained for assessment of cholesterol and triglyceride levels from all mice, and the mice were sacrificed for evaluation of atherosclerosis, as described hereinbelow, after 5 weeks Western diet, or (in Apo E KO mice) after 8 weeks on a chow diet.
# Assessment of Atherosclerosis: Quantification of atherosclerotic fatty streak lesions was done by calculating the lesion size in the aortic sinus as previously described (16) and by calculating the lesion size in the aorta. Briefly, after perfusion with saline Tris EDTA, the heart and the aorta were removed from the animals and the peripheral fat cleaned carefully. […] Lesion areas per section were scored on a grid (17) by an observer counting unidentified, numbered specimens. […]
# LDL-RD mice [5] = test: Aortic sinus lesion area after nasal tolerance induction, Western diet; format: in vivo
# Protocol: Nasal Tolerance: Nasal tolerance was induced by intranasal administration of oxidized LDL, β2GPI, β2GPI-derived peptides or HSP65, in a total volume of 10 μl PBS. Intranasal administration was performed on mildly sedated mice (12-16 weeks old), each mouse receiving 3 doses of antigen per dose, in the indicated concentrations, every other day. Atherogenesis was induced by 5 weeks of a Western diet initiated on the day following the last intranasal administration, or assessed (in Apo E KO mice) after 8 weeks on a chow diet. Controls received equal amounts of BSA and/or PBS, as indicated, in an identical regimen. Plasma was obtained for assessment of cholesterol and triglyceride levels from all mice, and the mice were sacrificed for evaluation of atherosclerosis, as described hereinbelow, after 5 weeks Western diet, or (in Apo E KO mice) after 8 weeks on a chow diet.
# Assessment of Atherosclerosis: Quantification of atherosclerotic fatty streak lesions was done by calculating the lesion size in the aortic sinus as previously described (16) and by calculating the lesion size in the aorta. Briefly, after perfusion with saline Tris EDTA, the heart and the aorta were removed from the animals and the peripheral fat cleaned carefully. The upper section of the heart was embedded in OCT medium (10.24% w/w polyvinyl alcohol; 4.26% w/w polyethylene glycol; 85.50% w/w nonreactive ingredients) and frozen. Every other section (10 μm thick) throughout the aortic sinus (400 μm) was taken for analysis. The distal portion of the aortic sinus was recognized by the three valve cusps that are the junctions of the aorta to the heart. Sections were evaluated for fatty streak lesions after processing and staining with oil-red O, according to Paigen et al (Atherosclerosis, 1987; 68:231-40). Lesion areas per section were scored on a grid (17) by an observer counting unidentified, numbered specimens. The aorta was dissected from the heart and surrounding adventitious tissue was removed. Fixation of the aorta and Sudan staining of the vessels were performed as previously described (21).
# Mice were bled prior to feeding (Time 0) and at the conclusion of the experiment (End) for determination of lipid profile. Atherosclerosis was assessed in heart and aorta as described above, 8 weeks after the last feeding. Mice were weighed every 2 weeks during the experiment. All mice were fed water ad libitum and a normal chow-diet containing 4.5% fat by weight (0.02% cholesterol), up to the final antigen exposure, and then a “Western” diet until sacrifice.
# Thus, nasal exposure to a low dose and an exceedingly low dose of recombinant human HSP 65 were compared for their effectiveness in suppressing atherogenesis in LDL-RD mice. 58 male 12-16 week old LDL-RD mice were divided into 4 groups.
Substance,reduction in Stimulation Index of OxLDL-sensitized lymph node cells (lymph node cells) [%],Stimulation index (lymph node cells),Aortic sinus lesion (μm^2) (LDL-RD mice [1]),Aortic sinus lesion (μm^2) (LDL-RD mice [2]),effect on Stimulation Index of sensitized lymph node cells in response to OxLDL (lymph node cells),further results
SCKVPVKKATVVYQGERVKIQ [Peptide S-3],93,20 ± 6,29269 ± 3307,45329 ± 14667,–,anti-atherogenic effect as compared to PBS+IFA (LDL-RD mice [2]; intraperitoneal immunization): without any significant anti-atherogenic effect
MLHGDKVSFFCKNKEKKCSYT [Peptide S-4],94,17 ± 10,21125 ± 2482,23758 ± 5767,–,"Aortic sinus lesion (μm^2) (ApoE-KO mice [3]; End, ApoE-KO mice): 81923 ± 9191 μm^2; reduction of progression of atherosclerotic lesions compared to PBS controls (ApoE-KO mice [3]; then 8 weeks of chow diet, 10-11 week-old ApoE-KO mice): > 50%; reduction of atherosclerosis (aortic sinus lesion size) as compared with BSA- and PBS-fed controls (LDL-RD mice [1]; oral 100 μg/dose, 5 doses, Western diet 5 weeks): 61%; Aortic sinus lesion (μm^2) (ApoE-KO mice [4]): 107953 ± 10158 μm^2"
ECLPQHAMFGNDTITCTTHGN [Peptide S-2],–,168 ± 72,23636 ± 3857,24050 ± 7755,mildly reduced,–
HSP-65: recombinant mycobacterial heat shock protein HSP 65,–,–,–,–,–,"Aortic sinus lesion (μm^2) (LDL-RD mice [5]; END, intranasal 10 μg/mouse every other day for 5 days, then Western diet, mean ± S.E): 44375 ± 5437 μm^2; protection from atherogenesis (LDL-RD mice [5]; nasal, exceedingly low doses (1 μg/mouse)): approximately 70%"
GDKVSFFCKNKE [Peptide S-4-4],–,–,–,–,–,"decrease of Stimulation Index as compared with PBS-treated controls (lymph node cells; 5 doses of 100 μg, OxLDL stimulation): ~50% and ~60%"
VCPFAGILENGAVRYTTFEY [Peptide S-1],–,246 ± 79,26750 ± 4698,29968 ± 6032,mildly reduced,–
